Experimental data as given in patent US7181884B2, “Materials and methods for controlling pests” (University of Florida Research Foundation, Inc., priority 2001, dated 2007).
Where two headings read alike, the source gives them in different places.

How the values were obtained:
[1] = test system: eggplant (Solanum melongena); details: in vivo
Description: Host eggplant (Solanum melongena) growing in fields were sprayed with deionized water containing varying concentrations of methionine, then dried.

[2] = test system: Manduca sexta neonate larvae; details: all test doses, sprayed excised eggplant leaves, water vehicle
Description: (§1) Another study evaluated the Manduca larvae mortality on excised leaves of host plant (eggplant; Solanum melongena) that were sprayed with various concentrations of L-methionine dissolved in deionized water. Manduca sexta neonate larvae were initially reared on eggplants in Plexiglas cylinders. Larvae (total N=64/treatment) were exposed to eggplant leaves that were sprayed (then dried) with aqueous solutions of methionine.

[3] = test system: eggplant; Solanum melongena; details: in vivo
Description: as §1

Aedes aegypti larvae = test system: Aedes aegypti larvae
Description: Another experiment assessed the specificity of L-methionine compared to L-proline on Aedes aegypti survival. Mosquito larvae (third or fourth instar; N=240) were placed in water containing various concentrations of L-proline or L-methionine, and fed ad libitum with commercial dried fish food applied to the water.

Manduca sexta larvae [4] = details: Silwet-L77
Protocol: In one study, leaves of eggplant (Solanum melongena) were sprayed with a deionized water/Silwet-L77 solution containing varying concentrations of methionine, then allowed to dry. The Silwet-L77 was prepared according to the manufacture's instructions. Manduca sexta larvae (N=400; 80 per methionine dose) were then exposed to the eggplant leaves during 10 days, and surviving larvae were counted daily.

[5] = test system: Leptinotarsa decemlineata larvae; details: whole eggplants sprayed, water vehicle
Description: Host growing whole eggplants in environmental growth chanmbers were sprayed with deionized water containing varying concentrations of methionine, then dried. Leptinotarsa decemlineata larvae (N=160 per group) were exposed to the leaves, and surviving larvae were counted daily.

Manduca sexta larvae [6] = details: 10% wt./wt. of dry diet components
Protocol: The effect of feeding L-methionine to Manduca sexta larvae as they progressed from the first through fifth instar stages was determined. Colonies of hornworms are commonly reared for research by well-accepted techniques that account for environmental conditions such as feed availability, daily photoperiod, temperature, etc. The caterpillars were obtained from Carolina Biological Supply Co. and were placed in a lighted 27° C. incubator and fed hydrated reconstituted Dry Tobacco Hornworm Medium Stock No. L-908D (Carolina Biological Supply Co., Burlington, N.C.) supplemented with or without (control) L-methionine supplementation.
The effect of feeding L-methionine to Manduca sexta larvae as they progressed from the first through fifth instar stages was studied. In one study, the caterpillars were placed in a 27° C. incubator (photoperiod 16 hours light, 8 hours dark; relative humidity 60%) and fed a hydrated standard defined hornworm diet without (control) or with L-methionine supplementation (10% wt./wt. of dry components).

CAATCH1 = CAATCH1 expressed in cell membranes; cited from earlier work
[7] = test system: Colorado potato beetle, Leptinotarsa decemlineata; details: field
Protocol: Eggplant (Solanum melongena) growing in an outside test field were treated with various concentrations of aqueous L-methionine solutions applied to the leaves, which were allowed to dry. Then larvae of Colorado potato beetle, Leptinotarsa decemlineata, were applied to the plants, and surviving larvae were counted daily.

SMILES | fruit yield mean numbers or mean weights [1] | larvae dead [2] [%] | plant viability [3] | larvae killed (Aedes aegypti larvae; 0.7% methionine in water, day 3) [%] | LD50 (Aedes aegypti larvae; day 2) [% methionine] | LD50 (Aedes aegypti larvae; day 3) [% methionine] | time to reach complete mortality (Manduca sexta larvae [4]; leaves treated with 0.31% methionine) [days] | time to reach complete mortality (Manduca sexta larvae [4]; leaves treated with 0.45% (w/w) methionine) [days] | methionine concentration at which complete mortality was attained [5] [%] | larval development (Manduca sexta larvae [6]) | larvae killed (Manduca sexta larvae [6]; within 3 days) [%] | CAATCH1-associated voltage-dependent amino acid-elicited steady state inward cation currents (CAATCH1) | efficacy of lowest concentration attempted ([7]; 0.06% (w/w on leaves)) | larvae mortality versus concentration ([7]; various concentrations) | effect on larvae survival compared to 0% methionine control (Aedes aegypti larvae; all test days, P≧0.05)
CSCC[C@H](N)C(=O)O [L-methionine] | not significantly different from control | 100 | plant viability was not affected | 100 | ~0.5 | ~0.3 | 4 | 2 | ≤ 0.15 | prevented all the caterpillars from advancing in development | 100 | blocked | efficacious | increased in a dose-dependent manner | –
O=C(O)[C@@H]1CCCN1 [L-proline, reference compound] | – | – | – | – | – | – | – | – | – | – | – | – | – | – | no effect
